Results published in US10857136B2, “Compounds for use in the prevention and/or treatment of non-alcoholic fat liver disease and non-alcoholic steatohepatitis” (SJT MOLECULAR RESEARCH, SL, priority 2017, dated 2020).

Test system: DIO mice (C57Bl/6J male mice)
Assay: Insulin resistance (HOMA-IR), 36 days assay in DIO mice
Assay type: in vivo
Conditions: 50 mg/kg orally twice daily for 36 days, days 1, 8, 15, 22, 29 and 36, vs saline control, similar to metformin 150 mg/kg
Protocol: To assess the performance of the compounds disclosed in decreasing insulin resistance, DIO mice (C57Bl/6J male mice) were treated with hydrochloride salts of compounds 4a, 5a; and with compound 7a during 36 days, versus a control treated with saline (0.9% NaCl) and versus DIO mice treated with metformin as a positive control.
For the assessment, 60 C57Bl/6 J male mice (16-week-old at delivery and 40 g of average weight), obtained from Charles River France put on high fat diet for 10 weeks. The animals were housed in ventilated and enriched housing cages (310×125×127 mm^3) throughout the experimental phase. Animals' cages litters were changed at least once a week. Mice were housed in groups of 10 mice on a normal 12 hours light cycle (at 08:00 pm lights were switched off), at 22±2° C. and 50±10% relative humidity. After reception, mice were maintained for three additional acclimation weeks. During the whole test (acclimation+treatment phase) a high fat diet (D12492 purchased from Research Diet Inc.; 60% fat) and tap water were provided ad libitum.
After the acclimation period, mice were fasted for 6 hours and blood glucose and plasma insulin were measured. Ten animals, those with lower blood glucose/plasma insulin, were discarded from the study. […]
Body weight were weekly measured as well as blood glucose and plasma insulin after a 6 hour-fasting.
Blood glucose was measured by sampling blood from the tip of the tail: a drop of blood is collected and placed on a glucometer strip (Accu-Check® glucometer, Roche, Switzerland). Plasma insulin was detected via ELISA (Elisa Kit, Eurobio, France) using 5 μl samples.
The Homeostatic model assessment-insulin resistance index (HOMA-IR), which is used to quantify insulin resistance, was calculated from fasting blood glucose, and plasma insulin values as follows: HOMA-IR=(mM glucose×μU/mL insulin)/22.5, being this constant a normalizing factor (Matthews et al., 1985, Diabetologia 28(7), 412-9).

COc1ccc(-c2nc(C(=O)NCCN)cc3c2[nH]c2ccccc23)cc1 [Compound 4a, N(-ethylamine)-1-benzosubstituted-β-carboline-3-carboxamide]
insulin resistance (HOMA-IR): lower insulin resistance compared to the control animals
